Measured values from PubChem BioAssay (NCI).
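Briefly, cells in 96-well plates were exposed to five compound concentrations for 48 h, and endpoints were estimated by linear interpolation. TGI: total growth inhibition.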

How the values were obtained:
Assay in all cases: NCI-60 cell line screen, 48 h
A549 NSCLC = system: A549 NSCLC
EKVX NSCLC = system: EKVX NSCLC
SK-MEL-28 melanoma = system: SK-MEL-28 melanoma
SN12C renal = system: SN12C renal
OVCAR-5 ovarian = system: OVCAR-5 ovarian
SF-268 CNS = system: SF-268 CNS
SR leukemia = system: SR leukemia
DU-145 prostate = system: DU-145 prostate
HS 578T breast = system: HS 578T breast
T-47D breast = system: T-47D breast

Structure (SMILES) | TGI (A549 NSCLC) | TGI (EKVX NSCLC) | TGI (SK-MEL-28 melanoma) | TGI (SN12C renal) | TGI (OVCAR-5 ovarian) | TGI (SF-268 CNS) | TGI (SR leukemia) | TGI (DU-145 prostate) | TGI (HS 578T breast) | TGI (T-47D breast)
O=C(O)C1=C(CO)Oc2cc3c(cc2C1c1ccc2c(c1)OCO2)OCO3 (configuration not stated) | > 100 µM | > 100 µM | > 100 µM | > 100 µM |  |  |  |  |  | 
[O-]c1c2c(nn1-c1ccc(F)cc1)c1ccccc1c[n+]2Cc1ccccc1 | 73.1 µM | 56.4 µM | 34 µM | 52.5 µM | 41.3 µM | 40.7 µM | 41.9 µM |  |  | 
CN(C)CCC(=O)[C@@]1(O)CC[C@H]2[C@@H]3CC=C4C[C@@H](O)CC[C@]4(C)[C@H]3CC[C@@]21C | > 86.8 µM | 42.6 µM | 33.2 µM | 32.2 µM | > 100 µM | 32.2 µM | 39.4 µM | 19.9 µM | 51.1 µM | 23.5 µM
O=C(c1ccccc1)c1ccc(N2C(=O)/C(=C/c3cccc(Oc4ccccc4)c3)N=C2c2ccccc2)c(N2C(=O)/C(=C/c3cccc(Oc4ccccc4)c3)N=C2c2ccccc2)c1 | > 100 µM | > 100 µM | > 100 µM | > 100 µM | > 100 µM | > 100 µM |  | > 100 µM | 88.5 µM | > 100 µM
NC1=NC(c2ccc(Cl)cc2)=CC(c2cccc(Cl)c2)S1 (configuration not stated) | 87.2 µM | 96.9 µM |  | 85.2 µM | > 100 µM | > 100 µM | 72.5 µM | > 100 µM | 66.7 µM | > 100 µM
CCCCC(CC)C(=O)Oc1ccc(C(=O)c2ccccc2)c(O)c1 (configuration not stated) | > 100 µM | > 100 µM | > 100 µM | > 100 µM | > 100 µM | > 100 µM |  | > 100 µM | 64.9 µM | > 100 µM
CCOC(=O)N1c2ccccc2N(C(=O)OCC)C1CC(=O)/C=C/c1ccccc1 | 18.1 µM | 8.54 µM | 28 µM | 14.4 µM | 7.78 µM | 9.82 µM | 5.75 µM | 9.11 µM | > 19.9 µM | > 100 µM
CC(C)=CCC/C(C)=C/Cc1c2c(c3oc(-c4ccc(O)c(O)c4)c(O)c(=O)c3c1O)C=CC(C)(C)O2 | 12.4 µM |  | 10.8 µM | 14.5 µM | 15.1 µM | 10.7 µM | 6.94 µM | 8.59 µM | 18.7 µM | 7.39 µM
O=C1c2cc3c(cc2[C@@H]2C(O)[C@H]4O[C@H]4C4CCN1C42)OCO3 (some centres not stated) | > 37.5 µM | > 37.5 µM | > 37.5 µM | > 37.5 µM | > 37.5 µM | > 37.5 µM | > 37.5 µM |  |  | 
Cc1csc2nc(-c3cc([N+](=O)[O-])c(Cl)cc3Cl)c(/C=N/N=C(N)N)n12 | 40.9 µM | 38.2 µM | 31.1 µM | 29.8 µM | 49.4 µM | 39.7 µM | 4.84 µM | 32.3 µM | 32.7 µM | 33.1 µM
CC(C)N(CC(=O)O)CC(=O)O | > 100 µM | > 100 µM | > 100 µM | > 100 µM | > 100 µM | > 100 µM | > 100 µM | > 100 µM | > 100 µM | > 100 µM
CO[P@@]1(=O)O[C@@H](c2ccccc2)[C@H](O)[C@@]1(O)c1ccccc1 | > 100 µM | > 100 µM | > 100 µM | > 100 µM | > 100 µM | > 100 µM | 74.7 µM | > 100 µM | > 100 µM | > 100 µM
Nc1[nH]c(=O)nc2c1cnn2COCCO | > 100 µM | > 100 µM | > 100 µM | > 100 µM | 73.6 µM | > 100 µM | > 100 µM |  |  | 
O=P1(Oc2ccc(Cl)cc2Cl)Oc2cc3ccccc3cc2O1 | > 100 µM | > 100 µM | > 100 µM | > 100 µM | > 100 µM | > 100 µM |  |  |  | 
CCOC(=O)c1sc2nc(SC)nc3c2c1NC(=O)CN3c1ccc(F)cc1 | 50.9 µM | > 100 µM | 82.6 µM | 69.1 µM | > 100 µM | 36.2 µM | > 100 µM | 97.9 µM | 53.3 µM | 
CC1(C=O)CC(CCc2ccccc2)NC1Cc1ccc(O)cc1 (configuration not stated) | 30.1 µM | 29 µM | 54 µM | 31.6 µM | 31.5 µM | 33.1 µM | 33.9 µM | 33.4 µM | 41.9 µM | 40.9 µM
COc1cc2cc(C(=O)N3CC(CCl)c4ccc(NO)cc43)[nH]c2c(OC)c1OC (configuration not stated) | > 100 µM | 2.15 µM | 3.22 µM | 11.8 µM | > 37.2 µM | 0.749 µM | > 100 µM | > 31 µM | 0.954 µM | > 42.6 µM
CCOC(=O)C(C(=O)OCC)c1cc(-c2cc3ccccc3o2)oc(=O)c1C#N | > 100 µM | > 100 µM | 63.3 µM | 62.9 µM | 33.1 µM | > 100 µM | 66.3 µM |  |  | 
Nc1ccc(Oc2ccc(C34CC5C6CC7(c8ccc(Oc9ccc(N)cc9)cc8)CC5C(C3)C(C7)C6C4)cc2)cc1 | > 100 µM | > 100 µM | > 100 µM | > 100 µM | > 100 µM | > 100 µM |  | > 100 µM | > 100 µM | > 100 µM
